Results from paper doi:10.1101/2023.03.24.534094v2 (biorxiv, 2023).
Read-outs that look alike come from different tables or passages of the source. Blank lines part the entries; values can stand above or below the compound they belong to.

Assays:
Test in all cases: biochemical
BRPF1 = target: T1, BRPF1 (Homo sapiens, UniProt P55201)
T1 sequence (P55201 1-1214): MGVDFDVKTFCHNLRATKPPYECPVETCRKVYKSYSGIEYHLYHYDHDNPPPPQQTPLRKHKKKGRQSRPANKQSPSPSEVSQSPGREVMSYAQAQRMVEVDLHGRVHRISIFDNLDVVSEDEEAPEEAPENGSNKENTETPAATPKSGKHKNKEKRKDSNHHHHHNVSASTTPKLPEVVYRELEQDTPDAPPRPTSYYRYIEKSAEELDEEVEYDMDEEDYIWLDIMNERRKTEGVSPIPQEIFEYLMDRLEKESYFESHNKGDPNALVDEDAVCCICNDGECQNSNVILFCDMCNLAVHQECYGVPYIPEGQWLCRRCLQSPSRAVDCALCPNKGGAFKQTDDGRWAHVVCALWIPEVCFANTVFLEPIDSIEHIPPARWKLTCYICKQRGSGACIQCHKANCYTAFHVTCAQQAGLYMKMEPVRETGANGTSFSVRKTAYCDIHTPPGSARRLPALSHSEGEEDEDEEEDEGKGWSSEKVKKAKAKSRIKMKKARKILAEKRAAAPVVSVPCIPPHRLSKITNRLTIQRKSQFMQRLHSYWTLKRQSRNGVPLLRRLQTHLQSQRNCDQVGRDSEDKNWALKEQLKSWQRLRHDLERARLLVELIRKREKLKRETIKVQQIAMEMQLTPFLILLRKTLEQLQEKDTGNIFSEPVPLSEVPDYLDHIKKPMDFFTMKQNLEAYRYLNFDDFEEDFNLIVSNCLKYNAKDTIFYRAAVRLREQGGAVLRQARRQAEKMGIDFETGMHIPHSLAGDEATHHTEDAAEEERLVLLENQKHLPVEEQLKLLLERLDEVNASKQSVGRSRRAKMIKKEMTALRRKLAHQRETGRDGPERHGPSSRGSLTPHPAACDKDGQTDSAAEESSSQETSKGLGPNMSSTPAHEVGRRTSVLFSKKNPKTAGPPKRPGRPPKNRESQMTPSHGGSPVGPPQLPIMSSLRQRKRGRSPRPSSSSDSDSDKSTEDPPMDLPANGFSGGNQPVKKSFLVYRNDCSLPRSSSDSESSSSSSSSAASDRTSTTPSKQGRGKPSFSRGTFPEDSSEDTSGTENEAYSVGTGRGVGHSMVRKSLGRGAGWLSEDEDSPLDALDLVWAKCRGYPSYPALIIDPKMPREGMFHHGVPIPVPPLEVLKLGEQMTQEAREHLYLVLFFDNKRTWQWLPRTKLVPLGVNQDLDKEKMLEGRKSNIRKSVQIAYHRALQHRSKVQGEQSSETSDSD

CLK1 = CLK1 (Homo sapiens, UniProt P49759)
FGFR2 = FGFR2 (Homo sapiens, UniProt P21802)
GSK3B = GSK3B (Homo sapiens, UniProt P49841)
NQO2A = target: T2, NQO2A (Homo sapiens, UniProt P16083)
T2 sequence (P16083 1-231): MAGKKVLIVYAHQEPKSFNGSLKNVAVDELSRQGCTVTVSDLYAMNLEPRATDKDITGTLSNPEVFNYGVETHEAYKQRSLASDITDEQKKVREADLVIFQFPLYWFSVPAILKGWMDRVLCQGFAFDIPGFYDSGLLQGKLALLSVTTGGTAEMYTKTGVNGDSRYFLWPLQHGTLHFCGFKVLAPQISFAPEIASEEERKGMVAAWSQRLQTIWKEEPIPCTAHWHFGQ

PHKG2 = target: T3, PHKG2 (Homo sapiens, UniProt P15735)
T3 sequence (P15735 1-406): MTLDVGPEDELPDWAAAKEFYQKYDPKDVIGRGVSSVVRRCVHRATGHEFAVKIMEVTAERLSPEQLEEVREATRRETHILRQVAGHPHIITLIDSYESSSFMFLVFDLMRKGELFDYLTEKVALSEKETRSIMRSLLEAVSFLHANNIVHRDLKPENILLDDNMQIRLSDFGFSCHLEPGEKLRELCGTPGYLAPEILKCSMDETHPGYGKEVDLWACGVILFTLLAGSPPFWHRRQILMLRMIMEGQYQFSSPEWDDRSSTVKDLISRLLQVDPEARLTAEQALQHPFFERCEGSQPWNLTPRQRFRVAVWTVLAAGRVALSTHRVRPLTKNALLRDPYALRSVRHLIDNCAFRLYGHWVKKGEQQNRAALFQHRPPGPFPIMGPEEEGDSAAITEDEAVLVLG

Wnk1 = Wnk1 (Homo sapiens, UniProt Q9H4A3)
Chain of Wnk1 (Q9H4A3 whole entry): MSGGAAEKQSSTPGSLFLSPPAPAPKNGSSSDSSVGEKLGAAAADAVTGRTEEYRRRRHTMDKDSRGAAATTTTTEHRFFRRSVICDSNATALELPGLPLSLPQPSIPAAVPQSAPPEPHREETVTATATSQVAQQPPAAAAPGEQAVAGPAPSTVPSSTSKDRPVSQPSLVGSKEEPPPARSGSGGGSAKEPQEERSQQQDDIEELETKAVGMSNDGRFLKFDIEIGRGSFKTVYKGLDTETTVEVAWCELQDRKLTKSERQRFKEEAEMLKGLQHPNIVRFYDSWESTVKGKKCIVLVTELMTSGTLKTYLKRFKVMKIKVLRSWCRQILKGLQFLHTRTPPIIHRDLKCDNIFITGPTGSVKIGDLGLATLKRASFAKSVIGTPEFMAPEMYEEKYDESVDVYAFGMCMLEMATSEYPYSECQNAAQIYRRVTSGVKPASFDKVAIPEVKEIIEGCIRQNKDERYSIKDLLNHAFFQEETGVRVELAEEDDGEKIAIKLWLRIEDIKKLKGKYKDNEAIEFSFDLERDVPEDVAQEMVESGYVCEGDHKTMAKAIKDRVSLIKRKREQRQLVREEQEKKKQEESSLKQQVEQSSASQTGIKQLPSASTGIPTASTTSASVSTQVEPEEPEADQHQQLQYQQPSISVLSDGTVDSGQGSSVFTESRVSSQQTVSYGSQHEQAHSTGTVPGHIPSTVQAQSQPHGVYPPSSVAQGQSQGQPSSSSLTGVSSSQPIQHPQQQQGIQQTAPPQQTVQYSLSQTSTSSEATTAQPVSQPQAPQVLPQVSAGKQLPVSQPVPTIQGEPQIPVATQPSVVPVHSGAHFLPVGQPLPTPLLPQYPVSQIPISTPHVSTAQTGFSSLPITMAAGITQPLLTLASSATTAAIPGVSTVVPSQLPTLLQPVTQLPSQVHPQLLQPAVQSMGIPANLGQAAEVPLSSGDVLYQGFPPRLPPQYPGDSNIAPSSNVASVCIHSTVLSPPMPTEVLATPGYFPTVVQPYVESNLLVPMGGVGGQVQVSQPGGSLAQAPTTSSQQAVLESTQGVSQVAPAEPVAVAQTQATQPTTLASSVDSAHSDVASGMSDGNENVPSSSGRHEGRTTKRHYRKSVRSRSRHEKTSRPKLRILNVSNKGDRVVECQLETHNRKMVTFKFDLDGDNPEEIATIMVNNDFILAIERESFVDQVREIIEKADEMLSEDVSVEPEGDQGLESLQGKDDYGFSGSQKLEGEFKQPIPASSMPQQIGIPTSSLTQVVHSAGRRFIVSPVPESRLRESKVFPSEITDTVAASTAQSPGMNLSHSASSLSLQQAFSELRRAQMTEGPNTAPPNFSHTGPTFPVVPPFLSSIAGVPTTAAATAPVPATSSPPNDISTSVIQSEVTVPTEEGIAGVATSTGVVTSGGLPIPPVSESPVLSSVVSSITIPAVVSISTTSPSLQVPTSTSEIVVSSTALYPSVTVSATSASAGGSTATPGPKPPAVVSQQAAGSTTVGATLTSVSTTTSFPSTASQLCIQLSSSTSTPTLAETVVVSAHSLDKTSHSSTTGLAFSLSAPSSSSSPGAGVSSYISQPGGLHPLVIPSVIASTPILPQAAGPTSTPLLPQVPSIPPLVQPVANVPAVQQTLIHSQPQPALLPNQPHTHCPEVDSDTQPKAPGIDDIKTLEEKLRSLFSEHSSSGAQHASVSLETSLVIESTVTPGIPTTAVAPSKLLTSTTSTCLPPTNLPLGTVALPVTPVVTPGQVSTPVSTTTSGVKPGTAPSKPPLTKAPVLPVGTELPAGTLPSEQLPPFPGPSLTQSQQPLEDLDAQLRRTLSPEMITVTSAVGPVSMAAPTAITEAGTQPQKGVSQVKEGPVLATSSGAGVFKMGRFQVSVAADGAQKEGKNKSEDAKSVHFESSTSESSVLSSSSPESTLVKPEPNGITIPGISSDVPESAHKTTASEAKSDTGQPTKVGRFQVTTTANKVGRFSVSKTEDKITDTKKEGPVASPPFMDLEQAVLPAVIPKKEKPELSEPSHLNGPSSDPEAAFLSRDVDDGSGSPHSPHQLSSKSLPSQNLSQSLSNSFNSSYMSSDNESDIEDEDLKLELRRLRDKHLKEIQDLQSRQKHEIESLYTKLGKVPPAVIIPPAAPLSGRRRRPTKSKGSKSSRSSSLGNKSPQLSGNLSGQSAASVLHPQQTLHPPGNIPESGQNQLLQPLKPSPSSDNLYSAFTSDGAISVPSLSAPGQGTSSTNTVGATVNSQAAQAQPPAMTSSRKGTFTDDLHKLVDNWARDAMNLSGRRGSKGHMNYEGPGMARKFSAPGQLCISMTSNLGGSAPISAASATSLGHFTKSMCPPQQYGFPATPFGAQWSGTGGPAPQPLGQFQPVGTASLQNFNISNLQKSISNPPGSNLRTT

Chain of FGFR2 (P21802 whole entry): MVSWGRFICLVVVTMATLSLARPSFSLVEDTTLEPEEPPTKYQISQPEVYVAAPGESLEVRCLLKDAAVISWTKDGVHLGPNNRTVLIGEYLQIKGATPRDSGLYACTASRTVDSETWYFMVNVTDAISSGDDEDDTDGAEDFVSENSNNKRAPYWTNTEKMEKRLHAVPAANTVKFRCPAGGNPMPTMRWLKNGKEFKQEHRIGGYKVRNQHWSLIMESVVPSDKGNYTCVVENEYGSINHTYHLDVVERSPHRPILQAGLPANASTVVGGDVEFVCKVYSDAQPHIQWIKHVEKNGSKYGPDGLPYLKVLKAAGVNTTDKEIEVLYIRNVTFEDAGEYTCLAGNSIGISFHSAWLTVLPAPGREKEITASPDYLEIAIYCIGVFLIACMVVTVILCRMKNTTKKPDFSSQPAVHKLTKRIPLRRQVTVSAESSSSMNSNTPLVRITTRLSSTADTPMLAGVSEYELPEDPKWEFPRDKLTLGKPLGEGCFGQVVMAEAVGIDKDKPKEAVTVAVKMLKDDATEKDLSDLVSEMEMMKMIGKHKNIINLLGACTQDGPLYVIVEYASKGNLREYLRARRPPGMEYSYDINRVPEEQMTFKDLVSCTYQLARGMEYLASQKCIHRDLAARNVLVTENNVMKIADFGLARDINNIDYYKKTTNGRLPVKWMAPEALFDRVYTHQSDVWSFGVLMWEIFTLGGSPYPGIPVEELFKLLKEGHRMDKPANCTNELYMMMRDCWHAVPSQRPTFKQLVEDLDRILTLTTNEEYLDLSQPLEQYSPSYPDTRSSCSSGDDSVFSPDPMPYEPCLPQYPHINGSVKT
Chain of CLK1 (P49759 whole entry): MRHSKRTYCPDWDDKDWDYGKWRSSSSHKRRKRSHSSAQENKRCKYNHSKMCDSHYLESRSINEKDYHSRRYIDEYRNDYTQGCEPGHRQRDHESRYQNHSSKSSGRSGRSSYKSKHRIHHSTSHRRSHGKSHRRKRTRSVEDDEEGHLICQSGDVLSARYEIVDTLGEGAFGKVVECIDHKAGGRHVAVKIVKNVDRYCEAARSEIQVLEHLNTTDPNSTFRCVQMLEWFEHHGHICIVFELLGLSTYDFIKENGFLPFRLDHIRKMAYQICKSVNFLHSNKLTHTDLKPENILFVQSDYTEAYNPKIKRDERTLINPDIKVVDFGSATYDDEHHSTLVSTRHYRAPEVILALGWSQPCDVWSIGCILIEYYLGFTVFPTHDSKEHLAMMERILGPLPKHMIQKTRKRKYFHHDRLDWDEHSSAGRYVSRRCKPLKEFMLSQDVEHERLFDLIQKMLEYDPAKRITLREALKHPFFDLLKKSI
Chain of GSK3B (P49841 whole entry): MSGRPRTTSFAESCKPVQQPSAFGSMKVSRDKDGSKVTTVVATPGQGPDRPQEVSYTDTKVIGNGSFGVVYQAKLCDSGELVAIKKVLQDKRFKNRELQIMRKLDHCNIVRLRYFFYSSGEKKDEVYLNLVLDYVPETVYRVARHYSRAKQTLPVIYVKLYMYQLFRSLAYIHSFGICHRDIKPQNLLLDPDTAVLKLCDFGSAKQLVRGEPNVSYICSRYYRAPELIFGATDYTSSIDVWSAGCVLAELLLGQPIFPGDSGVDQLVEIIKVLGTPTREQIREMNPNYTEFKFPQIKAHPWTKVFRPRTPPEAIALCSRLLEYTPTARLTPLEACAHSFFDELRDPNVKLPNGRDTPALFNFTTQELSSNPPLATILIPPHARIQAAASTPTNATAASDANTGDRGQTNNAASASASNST

SMILES: CNc1ncc2cc(-c3cc(Br)ccc3Br)c(=O)n(CCCCN)c2n1 [compound 11, 8-(4-Aminobutyl)-6-(2,5-dibromophenyl)-2-(methylamino)pyrido[2,3-d]pyrimidin-7(8H)-one]
ΔTm at 10 µM (BRPF1; read-out: dTm 11): -0.7 °C
ΔTm at 10 µM (CLK1; read-out: dTm 11): 0.4 °C
ΔTm at 10 µM (FGFR2; read-out: dTm 11): 3.4 °C
ΔTm at 10 µM (GSK3B; read-out: dTm 11): 0.8 °C
ΔTm at 10 µM (NQO2A; read-out: dTm 11): 0.3 °C
ΔTm at 10 µM (PHKG2; read-out: dTm 11): 0.6 °C
ΔTm at 10 µM (Wnk1; read-out: dTm 11): 0.4 °C

SMILES: CNc1ncc2cc(-c3cc(C(F)(F)F)ccc3Cl)c(=O)n(CCCCN)c2n1 [compound 9, 8-(4-Aminobutyl)-6-(2-chloro-5-(trifluoromethyl)phenyl)-2-(methylamino)pyrido[2,3-d]pyrimidin-7(8H)-one]
ΔTm at 10 µM (BRPF1; read-out: dTm 9): -0.4 °C
ΔTm at 10 µM (CLK1; read-out: dTm 9): 0.4 °C
ΔTm at 10 µM (FGFR2; read-out: dTm 9): 2.1 °C
ΔTm at 10 µM (GSK3B; read-out: dTm 9): 0.8 °C
ΔTm at 10 µM (NQO2A; read-out: dTm 9): -0.3 °C
ΔTm at 10 µM (PHKG2; read-out: dTm 9): 0.5 °C
ΔTm at 10 µM (Wnk1; read-out: dTm 9): 0.1 °C

SMILES: CNc1ncc2cc(-c3cc(Cl)ccc3Cl)c(=O)n(CCCCN)c2n1 [compound 8, 8-(4-Aminobutyl)-6-(2,5-dichlorophenyl)-2-(methylamino)pyrido[2,3-d]pyrimidin-7(8H)-one]
ΔTm at 10 µM (BRPF1; read-out: dTm 8): -0.5 °C
ΔTm at 10 µM (CLK1; read-out: dTm 8): 0.6 °C
ΔTm at 10 µM (FGFR2; read-out: dTm 8): 4.1 °C
ΔTm at 10 µM (GSK3B; read-out: dTm 8): 1 °C
ΔTm at 10 µM (NQO2A; read-out: dTm 8): 0.5 °C
ΔTm at 10 µM (PHKG2; read-out: dTm 8): 1.5 °C
ΔTm at 10 µM (Wnk1; read-out: dTm 8): 0.3 °C

More lines, now with the values ahead:

ΔTm at 10 µM (BRPF1; read-out: dTm 12): -1.5 °C
ΔTm at 10 µM (CLK1; read-out: dTm 12): -0.1 °C
ΔTm at 10 µM (FGFR2; read-out: dTm 12): 1.1 °C
ΔTm at 10 µM (GSK3B; read-out: dTm 12): 1.7 °C
ΔTm at 10 µM (NQO2A; read-out: dTm 12): 0.2 °C
ΔTm at 10 µM (PHKG2; read-out: dTm 12): 1.5 °C
ΔTm at 10 µM (Wnk1; read-out: dTm 12): 1 °C
SMILES: CNc1ncc2cc(-c3cc(F)c(-c4cccc(C)n4)cc3F)c(=O)n(CCCCN)c2n1 [compound 12, 8-(4-Aminobutyl)-6-(2,5-difluoro-4-(6-methylpyridin-2-yl)phenyl)-2-(methylamino)pyrido[2,3-d]pyrimidin-7(8H)-one]

ΔTm at 10 µM (BRPF1; read-out: dTm 10): -0.3 °C
ΔTm at 10 µM (CLK1; read-out: dTm 10): 0.4 °C
ΔTm at 10 µM (FGFR2; read-out: dTm 10): 3.3 °C
ΔTm at 10 µM (GSK3B; read-out: dTm 10): 0.8 °C
ΔTm at 10 µM (NQO2A; read-out: dTm 10): 0.6 °C
ΔTm at 10 µM (PHKG2; read-out: dTm 10): 1.3 °C
ΔTm at 10 µM (Wnk1; read-out: dTm 10): 0.3 °C
SMILES: CNc1ncc2cc(-c3cc(Cl)ccc3Br)c(=O)n(CCCCN)c2n1 [compound 10, 8-(4-Aminobutyl)-6-(2-bromo-5-chlorophenyl)-2-(methylamino)pyrido[2,3-d]pyrimidin-7(8H)-one]
